This note sets out measurements from PubChem BioAssay AID179 (DTP/NCI, 2004).

This test deals with CEM cells HIV-1 protection, formazan growth assay. Briefly: NCI AIDS Antiviral Assay. The conditions noted are these: for IC50: measured here: growth of uninfected CEM cells. The method, boiled down: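 CEM (human) cells, HIV-1 infected vs uninfected, 5-point dosing, formazan growth read-out. Retest threshold 50% protection.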

Values joined by “and” are separate entries in the source; they are usually repeats but may differ in a detail not shown here. Equal entries are not always repeated. Active and inactive are the calls of the source.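 The calls were made as follows: active = compounds giving half or more protection of infected cells from virus-caused growth loss, again on retest; inactive = the rest.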 Bounds are passed on as bounds.

In general, EC50 refers to the concentration at which the effect is half-maximal. By IC50 is commonly meant the midpoint of a concentration-inhibition curve. Lower therefore signals inhibition by little substance. For the compound `C[C@@H]1C[C@@]2(O)[C@@H]3C[C@H](F)C4=CC(=O)CC[C@]4(C)[C@H]3[C@@H](O)C[C@]2(C)[C@@]1(O)C(=O)CO`, the EC50 was more than 200 µM and the IC50 was 178 µM.
The corresponding values for `COc1ccc(-c2cc(=O)c3c(O)cc(O)cc3o2)cc1OC` are more than 70.8 µM and more than 70.8 µM.
Turning to `Cc1cc(C)[n+]([O-])c(C)c1`, the EC50 was more than 1820 µM and the 50% inhibitory concentration (IC50) was 977 µM.
As for `COc1cc2c(c3c1c(=O)c1ccccc1n3C)C=CC1(CCCC1)O2`, the EC50 is more than 200 µM and the IC50 worked out at 11 µM.
For the compound `c1csc([As](O[As](c2cccs2)c2cccs2)c2cccs2)c1`, the EC50 is more than 0.2 µM and the concentration for half-maximal inhibition (IC50) turned out to be 0.102 µM.
In the case of `Cc1cn(C2CC(N=[N+]=[N-])C(COC(=O)CCCCCCCCCc3ccccc3)O2)c(=O)[nH]c1=O` (stereo not given), the EC50 is 0.129 µM and the IC50 came out at 110 µM.
As to `C#CC[N+](C)(CC#C)CC#C`, the result was inactive.
For `CN1C(=O)c2ccccc2C1(N)c1ccccc1` (stereo not given), the EC50 is 661 µM and the IC50 amounted to 871 µM.
Consider `CC(C)(C)c1cc(Cc2ccc([N+](C)(C)C)cc2)c(O)c(C(C)(C)C)c1`, for which the outcome was inactive.
For `COC1/C=C/OC2(C)Oc3c(C)c(O)c4c(O)c(c(/C=N/N5CCCCC5)c(O)c4c3C2=O)NC(=O)C(C)=C/C=C/C(C)C(O)C(C)C(O)C(C)C(OC(C)=O)C1C` (stereo not given), the EC50 is more than 200 µM and the IC50 was determined as 10.2 µM.
Consider `Cc1c(C(=N)C(C#N)C#N)c(=N)oc2c1ccc1ccccc12`, for which the EC50 was more than 200 µM and the IC50 came out at 26.9 µM.
Turning to `CN(C)Cc1c[nH]c2nc[nH]c(=O)c12`, the EC50 is more than 200 µM and the IC50 was determined as 25.7 µM.
The corresponding values for `NS(=O)(=O)c1ccccc1C(=O)N/N=C(\c1nc2ccc([N+](=O)[O-])cc2[nH]c1=O)C(O)c1ccc([N+](=O)[O-])cc1` (stereo not given) are more than 120 µM and 107 µM.
The corresponding values for `CC1OC(c2ccc3c(OCc4ccccc4)cccc3c2O)CC(OCc2ccccc2)[C@H]1OCc1ccccc1` (stereo not given in full) are more than 200 µM and more than 200 µM.
With `O=C1Nc2cc(F)ccc2C1=O`, the EC50 is more than 1510 µM and the IC50 is 251 µM.
`CC1=CC(C)(C)NC(=S)N1c1ccc(N(C)C)cc1`: the outcome was inactive.
For the compound `c1ccc(Nc2nnc(CSc3nc(-c4ccccc4)c(-c4ccccc4)[nH]3)s2)cc1`, the EC50 is more than 81.3 µM and the IC50 is 72.4 µM.
For `CCC1(c2ccccc2)NC(=O)N(C)C1=O` (stereo not given), the EC50 was more than 200 µM and the IC50 is more than 200 µM.
`OCCN(CCO)c1nc(N(CCO)CCO)nc(N(CCO)CCO)n1`: the EC50 was more than 200 µM and the IC50 is more than 200 µM.
`O=C(O)c1cc2c(cn1)[nH]c1ccccc12`: the outcome was inactive.
Take `O=c1ccn(CC2(CO)CCC2)c(=O)[nH]1`: the EC50 is more than 200 µM and the IC50 is more than 200 µM.
Take `CN1C(=O)CC(CC(=O)C2CCCCC2=O)CC1=O` (stereo not given): the EC50 is more than 200 µM and the IC50 is more than 200 µM.
`NN1CCOC1=O`: the EC50 was more than 200 µM and the IC50 is more than 200 µM.
Consider `CC(C)(C)CC(C)(C)SSc1n[nH]c(=S)s1`, for which the EC50 is more than 200 µM and the IC50 came to 17.4 µM.
In the case of `O=c1[nH]c(=O)n(C2OC(CO)C(O)C2O)c2nc(-c3ccc(-c4ccccc4)cc3)cnc12` (stereo not given), the EC50 was more than 200 µM and the IC50 is more than 200 µM.
For the compound `Cc1cc2nc(-c3ccccc3[N+](=O)[O-])[nH]c2cc1C`, the result was inactive.
For `O=C(/C=C(\O)c1ccc(Cl)cc1)C(=O)NN=C(c1ccccc1)c1ccccc1`, the EC50 is more than 200 µM and the IC50 is 16.6 µM.
Consider `O=C1c2ccccc2C(=O)C2C3c4ccccc4C(c4ccccc43)C12` (stereo not given), for which the EC50 is more than 15.5 µM and the IC50 was more than 15.5 µM.
Turning to `O=C(OC[C@H]1O[C@@H](OC(=O)c2cc(O)c(O)c(O)c2)[C@H](OC(=O)c2cc(O)c(O)c(O)c2)[C@@H](OC(=O)c2cc(O)c(O)c(O)c2)[C@@H]1OC(=O)c1cc(O)c(O)c(O)c1)c1cc(O)c(O)c(O)c1`, the EC50 is more than 132 µM and the IC50 is 21.4 µM.
For the compound `CCOC(=O)NC1CS(=O)(=O)CC1Cl` (stereo not given), the EC50 is more than 200 µM and the IC50 is more than 200 µM.
In the case of `c1cc2c(c(CC3CO3)c1CC1CO1)OCCOCCOCCOCCO2` (stereo not given), the EC50 is more than 661 µM and the IC50 is 1.38 µM.
Take `C[Si]1(C)C(c2ccccc2)=CC2C(c3ccccc3)(c3ccccc3)OC21c1ccccc1` (stereo not given): the EC50 was more than 4.27 µM and the IC50 was 1.17 µM.
Regarding `NC(Cc1ccc(OCc2ccccc2)cn1)C(=O)O` (stereo not given), the EC50 was more than 200 µM and the IC50 is more than 200 µM.
As for `COC(=O)c1ccccc1C1CN=NC12Cc1cc(C)ccc1C2=O` (stereo not given), the EC50 is more than 200 µM and the concentration for half-maximal inhibition (IC50) is more than 200 µM.
For `CC1C[N+]2(CNC(=O)C3=C(O)C4(O)C(=O)C5=C(O)c6c(O)cccc6C(C)(O)C5CC4C(N(C)C)C3=O)CC(C)O[B-]2(c2ccccc2)O1` (stereo not given), the EC50 is more than 138 µM and the IC50 is 105 µM.
Turning to `CCCCCCCCCCNCCSSCc1ccc(Cl)cc1`, the outcome was inactive.
`O=C1/C(=C/c2ccc(O)cc2)CCCC1CN1CCCCC1` (stereo not given): the EC50 is more than 2 µM and the half-inhibitory concentration (IC50) amounted to 1.86 µM.
Regarding `Cn1nc(-c2ccccc2)c2c(/C=C/c3ccc(Cl)cc3)onc2c1=O`, the EC50 was more than 14.5 µM and the IC50 is more than 14.5 µM.
With `CCOC(=O)CC(C)P(c1ccccc1)C(C)CC(=O)OCC` (stereo not given), the EC50 is more than 741 µM and the IC50 is more than 741 µM.
Take `C(=Nc1cnc2ccccc2c1)c1cccnc1`: the EC50 is more than 1070 µM and the IC50 worked out at 195 µM.
The corresponding values for `C=C(C)C1CCC(C(=O)O)CC1` (stereo not given) are more than 200 µM and more than 200 µM.
Turning to `NC(=O)c1nc2ccccc2nc1Nc1ccc(Cl)cc1Cl`, the EC50 was more than 1.58 µM and the IC50 is more than 1.58 µM.
On to `Cc1ccc(NC(Nc2ccc(C)cc2C)=C(/C=C(\Cl)[N+](=O)[O-])[N+](=O)[O-])c(C)c1`, for which the EC50 was more than 200 µM and the IC50 is 2.51 µM.
The corresponding values for `N#C/C(=C\c1cc(O)c(O)c([N+](=O)[O-])c1)C(=O)NCCCNC(=O)/C(C#N)=C/c1cc(O)c(O)c([N+](=O)[O-])c1` are more than 200 µM and 72.4 µM.
In the case of `O=C1Nc2n[nH]c(=S)n2NC12c1ccccc1-c1ccccc12`, the EC50 is more than 200 µM and the IC50 is more than 100 µM.
`OC1(c2ccc(Cl)cc2)c2ccccc2C2=NCc3ccccc3CN21` (stereo not given): the EC50 is more than 200 µM and the IC50 was 33.1 µM.
For `COc1ccc(C2=C(OC(C)=O)c3cccn3-c3ccc(Cl)cc3S2)cc1`, the EC50 is more than 200 µM and the 50% inhibitory concentration (IC50) is 12.3 µM.
Take `N#CSC#Cc1ccc(C#CSC#N)cc1`: the EC50 was more than 200 µM and the IC50 came to 2.4 µM.
For the compound `O=c1[nH]cc(SSc2c[nH]c(=O)[nH]c2=O)c(=O)[nH]1`, the EC50 was 138 µM and the IC50 is more than 200 µM.
`COc1cccc(NC(=O)CC(=O)NNCC(=O)Nc2nnc(-c3ccc(N(CCC#N)S(=O)(=O)c4ccccc4)cc3)s2)c1`: the EC50 was more than 77.6 µM and the IC50 worked out at 66.1 µM.
As to `CN(CC#N)C(=O)Cc1ccc([N+](=O)[O-])cc1`, the EC50 was more than 200 µM and the IC50 is more than 200 µM.
On to `CCCCC1OC2O[C@]3(C)CCC4C(C)CCC([C@H]1C)C24OO3` (stereo not given in full), for which the EC50 was more than 95.5 µM and the IC50 worked out at 22.4 µM.
For the compound `COc1cccc(C=C2C(=O)OC(C)(C)OC2=O)c1`, the result was inactive.
With `NC(CCCC(N)P(=O)(O)c1ccccc1)P(=O)(O)c1ccccc1` (stereo not given), the EC50 is more than 661 µM and the IC50 is more than 661 µM.
Turning to `CC(=O)O[C@@H](c1nccn1Cc1ccccc1)[C@H]1OC(C)(C)O[C@@H]1[C@H]1COC(C)(C)O1`, the EC50 was more than 200 µM and the IC50 was more than 200 µM.
Turning to `Cn1cnc2[nH]c(=O)n(OS(=O)(=O)c3ccccc3)c(=O)c21`, the EC50 was more than 195 µM and the IC50 was 151 µM.
Turning to `Cc1cc(C)cc(/C(C#N)=C/c2ccc(N(C)C)cc2)c1`, the EC50 is more than 2 µM and the IC50 stood at 0.102 µM.
For the compound `CCCCCCC(C)CCCCCCCCCCC(=O)O` (stereo not given), the outcome was inactive.
`O=c1c2ccccc2nc(-c2ccccc2)n1NC(=S)Nc1ccc(Cl)cc1[N+](=O)[O-]`: the EC50 was more than 15.8 µM and the IC50 is more than 15.8 µM.
With `Cc1ccc2ccccc2c1NC1=NCCO1`, the EC50 is more than 200 µM and the IC50 worked out at 107 µM.
As to `CCOc1ccccc1N=C(NC(=O)CC)SC`, the EC50 is more than 18.2 µM and the IC50 was more than 18.2 µM.
For the compound `CC1(O)Oc2ccc3ccccc3c2C=C1C(N)=O` (stereo not given), the EC50 was more than 200 µM and the IC50 is 182 µM.
Consider `COc1cc(C=C2N=C(c3ccccc3)N(n3c(-c4ccccc4)nc4ccccc4c3=O)C2=O)cc(OC)c1OC`, for which the EC50 is more than 200 µM and the IC50 stood at 30.9 µM.
Turning to `NCCCC(N)(C(=O)O)C(F)F` (stereo not given), the EC50 is more than 200 µM and the IC50 stood at 129 µM.
Consider `O=c1[nH]c2cc(Cl)ccc2nc1/C(=N\O)C(O)c1ccc([N+](=O)[O-])cc1` (stereo not given), for which the outcome was inactive.
`CC1CCC(C(C)C)C(O[C@@H]2OC(=O)C[C@@H]2Sc2ccccc2)C1` (stereo not given in full): the outcome was inactive.
For the compound `N#Cc1ccc(Cc2ccccn2)cc1Cl`, the result was inactive.
Turning to `O=S1OCCO1`, the EC50 is more than 2290 µM and the IC50 was more than 2290 µM.
For `CCOP(=O)(OCC)/C(=C/NC(=S)c1ccncc1)C(=O)OC`, the EC50 is 126 µM and the IC50 amounted to 186 µM.
On to `CN1C/C(=C\c2ccccc2[N+](=O)[O-])C(=O)/C(=C/c2ccccc2[N+](=O)[O-])C1`, for which the EC50 is more than 2 µM; the IC50 was 0.166 µM and 0.0871 µM.
Turning to `Cc1c(C#N)c(N)n(C2OC(CO)C(O)C(O)C2O)c(=S)c1C#N` (stereo not given), the EC50 is more than 200 µM and the IC50 is more than 200 µM.
In the case of `COc1ccc(C)cc1C1CCC(=O)O1` (stereo not given), the EC50 was more than 1200 µM and the IC50 is more than 1200 µM.
For `O=C1CCc2cc3c(cc21)CC1(Cc2cc4c(cc2C1)CCCC4)C3`, the EC50 is more than 200 µM and the IC50 was determined as 138 µM.
